One assay relates to MDA-MB-231 cells. The assay can be described thus: MTT metabolization, inhibition of MDA-MB-231 cell proliferation. Particulars: Homo sapiens, read-out: Percentage inhibition Formula (III) mean. In kind it is cell-based. The procedure:
These triple negative breast cancer cell lines were obtained from the American Type Culture Collection Cell Biology Collection (ATCC) (Manassas, Va.). The medium was changed every 2 days.
Cell proliferation and growth experiments were carried out using 3-(4,5-dimethylthiazol-2-yl)-2,5-diphenyltetrazolium bromide (MTT) uptake assays, where MTT is reduced to purple formazan by the mitochondria of living cells. Increase in cell number is detected by augmented MTT metabolization, and decrease in cell number is reflected by a decrease. […] The cells were treated with the drug at different concentrations to plot the dose-response curves in all cancer cell lines using in the study. […] After treatment, each well was replaced with 250 μL of fresh medium containing MTT ([…]) and incubated for 1 hour. The medium was then removed and 500 μL of dimethyl sulfoxide was added to each well. The plate was agitated in the dark for 5 minutes to dissolve the MTT-formazan crystals. The absorbance of the samples was recorded at 562 nm in a multi-well plate reader (BMG labtech). Results were plotted as the mean values of quadruplicates from a representative experiment that was repeated at least two independent times.
Combination index values less than 1 indicate synergism, values equal to 1 indicate an additive effect, whereas values greater than 1 indicate antagonism. Combination index values from three independent experiments were generated.

The test system of the next assay is HS578T cells. Description: Western Blot of DNA damage and cell cycle markers. In kind it is cell-based. The note with it: 500 nM, up to 24 h. The procedure: Western-blot and phospho-array kits were used for evaluation of signaling intermediates.
HS578T and BT549 cell lines were grown in DMEM 10% of FBS and at 70% confluence were treated with Formula (III) at 500 nM for 6, 12 and 24 hours. Cells were washed with phosphate-buffered saline (PBS) (137 mM NaCl, 2.7 mM KCl, 8 mM Na2HPO4, 1.5 mM KH2PO4) and lysed in ice-cold lysis buffer (20 mM Tris-HCl [pH 7.0], 140 mM NaCl, 50 mM EDTA, 10% glycerol, 1% Nonidet P-40, 1 μM pepstatin, 1 μg/mL aprotinin, 1 μg/mL leupeptin, 1 mM phenylmethyl sulfonyl fluoride, 1 mM sodium orthovanadate). Lysates were centrifuged at 10000 g at 4° C. for 10 minutes. The protein level in the supernatants was quantified using BCA protein assay (Sigma Aldrich). A total of 50 μg of protein of each sample was used for analysis. Samples were then boiled in electrophoresis sample buffer and placed on 6%-15% sodium dodecyl sulfate-polyacrylamide gel electrophoresis (SDS-PAGE) gels, depending on the molecular weight of the proteins to be analyzed. Briefly, after electrophoresis, proteins in gels were transferred to polyvinylidene difluoride membranes (Millipore Corporation). Membranes were blocked in Tris-buffered saline with Tween (TBST) (100 mM Tris [pH 7.5], 150 mM NaCl, 0.05% Tween 20) containing 1% of bovine serum albumin for 1 h and then incubated overnight with the corresponding antibody. Anti-pS473-AKT and anti-pT308-AKT were purchased from Santa Cruz; Anti-pS6, anti-pSTAT3 and anti-GADPH were purchased from Cell Signalling Technology; Anti-pH3, were purchased from Millipore-Cell Signaling; anti-p-H2AX were purchased from BD Biosciences. After washing with TBST, membranes were incubated with HRP-conjugated anti-mouse or anti-rabbit secondary antibodies (1:5000 dilution) for 1 hour and bands were visualized by using ECL Plus Western Blotting Detection System (GE Healthcare, Buckinghamshire, United Kingdom).
A general note: A western blot detects proteins with antibodies after separation by electrophoresis.

SMILES strings stand for the structures. Where two headings read alike, the source gives them in different places.

On to `C[C@]12O[C@H](C[C@@H](O)[C@H]1O)n1c3ccccc3c3c4c(c5c6ccccc6n2c5c31)C(=O)NC4=O` [Formula (III)], for which the viability at 0.1 µM with MDA-MB-231 cells (MDA-MB-231, Formula (III) 100 nM alone (Table 4)) was 56.4%; in the assay on MDA-MB-231 cells (MDA-MB-231, Formula (III) 100 nM alone (Table 5)) it was 62.5%. Further, the viability at 0.12 µM with MDA-MB-231 cells (MDA-MB-231, Formula (III) 120 nM alone (Table 2)) was 63.8%; in the assay with MDA-MB-231 cells (MDA-MB-231, Formula (III) 120 nM alone), 63.8%. For the same compound, the viability at 0.18 µM in the assay on MDA-MB-231 cells (MDA-MB-231, Formula (III) 180 nM alone (Table 2)) worked out at 49.8%; in the assay on MDA-MB-231 cells (MDA-MB-231, Formula (III) 180 nM alone), 49.8%. Besides, the viability at 0.2 µM in the assay on MDA-MB-231 cells (MDA-MB-231, Formula (III) 200 nM alone (Table 3)) stood at 60.3%; in the assay with MDA-MB-231 cells (MDA-MB-231, Formula (III) 200 nM alone (Table 4)) it was 56.4%; in the assay with MDA-MB-231 cells (MDA-MB-231, Formula (III) 200 nM alone (Table 5)), 46.9%. Moreover, the viability at 0.24 µM turned out to be 38.2% with MDA-MB-231 cells (MDA-MB-231, Formula (III) 240 nM alone (Table 2)) and 38.2% in the assay with MDA-MB-231 cells (MDA-MB-231, Formula (III) 240 nM alone). In the assay with MDA-MB-231 cells (MDA-MB-231, Formula (III) 260 nM alone (Table 3)), the viability at 0.26 µM turned out to be 54.5%. Also, the viability at 0.3 µM in the assay with MDA-MB-231 cells (MDA-MB-231, Formula (III) 300 nM alone (Table 2)) turned out to be 28.1%; in the assay on MDA-MB-231 cells (MDA-MB-231, Formula (III) 300 nM alone (Table 3)), 49.4%; with MDA-MB-231 cells (MDA-MB-231, Formula (III) 300 nM alone (Table 4)) it was 40.2%; with MDA-MB-231 cells (MDA-MB-231, Formula (III) 300 nM alone (Table 5)) it was 40.5%; in the assay on MDA-MB-231 cells (MDA-MB-231, Formula (III) 300 nM alone), 28.1%. Moreover, the viability at 0.38 µM in the assay on MDA-MB-231 cells (MDA-MB-231, Formula (III) 380 nM alone (Table 3)) turned out to be 36.9%. Moreover, the viability at 0.4 µM in the assay on MDA-MB-231 cells (MDA-MB-231, Formula (III) 400 nM alone (Table 4)) amounted to 35.3%; in the assay on MDA-MB-231 cells (MDA-MB-231, Formula (III) 400 nM alone (Table 5)), 33.7%. Moreover, in the assay with HS578T cells, the “Cyclin B and p-Cdc2 levels” value is “increase”. Further, the “cyclin D and Cyclin A levels” value with HS578T cells was “down-regulated”. Moreover, the “phosphorylated levels of γH2AX” value with HS578T cells is “increase in the phosphorylated levels of γH2AX in a time dependent manner”. In the assay on HS578T cells, the “phosphorylation of p53 and chk2” value is “induced the phosphorylation of p53 and chk2”.

For the origin of these results see US9808469B2, “Antitumor activity of multi-kinase inhibitors in triple negative breast cancer” (ENTRECHEM, S.L, priority 2014, dated 2017).
